The values below come from patent US9056874B2, “Complement pathway modulators and uses thereof” (NOVARTIS AG, priority 2012, dated 2015).

For the test, the target named is factor B (Homo sapiens, UniProt P00751). The test is described as follows: factor B inhibition assay of Biological Example 1. Also on record: CVF-Bb complex prepared from purified cobra venom factor (1 μM), recombinant human complement factor B; made in house; host or cells: drosophila cells (factor B); E. coli (factor D used to form the complex). The test is classed as biochemical. Conditions: IC50 (nM), assay of Biological Example 1 (Table 1).
factor B, sequence (P00751 260-764 limits assumed): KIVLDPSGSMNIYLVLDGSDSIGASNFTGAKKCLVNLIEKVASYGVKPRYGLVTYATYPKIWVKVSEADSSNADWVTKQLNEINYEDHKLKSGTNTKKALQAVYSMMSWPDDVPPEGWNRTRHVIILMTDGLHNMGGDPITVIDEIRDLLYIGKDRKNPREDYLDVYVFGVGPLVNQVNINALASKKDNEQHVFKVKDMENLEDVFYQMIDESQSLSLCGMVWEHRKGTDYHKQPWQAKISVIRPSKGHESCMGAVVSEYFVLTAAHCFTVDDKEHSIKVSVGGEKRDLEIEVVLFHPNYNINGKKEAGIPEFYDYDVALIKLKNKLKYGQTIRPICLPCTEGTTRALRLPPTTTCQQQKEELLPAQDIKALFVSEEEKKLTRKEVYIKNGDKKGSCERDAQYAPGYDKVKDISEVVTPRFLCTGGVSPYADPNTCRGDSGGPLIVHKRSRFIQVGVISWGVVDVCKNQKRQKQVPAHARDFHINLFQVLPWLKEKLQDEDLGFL
factor B, sequence (Q91132 23-649 partner limits assumed): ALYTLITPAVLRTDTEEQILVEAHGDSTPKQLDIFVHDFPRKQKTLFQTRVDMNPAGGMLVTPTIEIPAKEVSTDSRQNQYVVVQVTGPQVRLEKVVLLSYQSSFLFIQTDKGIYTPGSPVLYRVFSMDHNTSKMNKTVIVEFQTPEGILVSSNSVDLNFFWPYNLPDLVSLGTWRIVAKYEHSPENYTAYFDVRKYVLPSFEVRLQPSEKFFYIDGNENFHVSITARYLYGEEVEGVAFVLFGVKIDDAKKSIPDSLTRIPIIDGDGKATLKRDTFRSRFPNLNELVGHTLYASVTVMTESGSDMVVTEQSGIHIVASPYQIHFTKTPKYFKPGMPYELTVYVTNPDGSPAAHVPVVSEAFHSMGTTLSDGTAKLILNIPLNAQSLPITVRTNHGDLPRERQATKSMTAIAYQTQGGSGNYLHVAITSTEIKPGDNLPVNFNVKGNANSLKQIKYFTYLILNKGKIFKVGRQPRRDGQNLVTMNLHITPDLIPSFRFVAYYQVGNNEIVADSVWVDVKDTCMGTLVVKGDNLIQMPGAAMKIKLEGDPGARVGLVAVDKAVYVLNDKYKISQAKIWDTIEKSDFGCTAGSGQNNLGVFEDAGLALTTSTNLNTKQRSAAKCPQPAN
factor B, sequence (Q91132 733-984 partner limits assumed): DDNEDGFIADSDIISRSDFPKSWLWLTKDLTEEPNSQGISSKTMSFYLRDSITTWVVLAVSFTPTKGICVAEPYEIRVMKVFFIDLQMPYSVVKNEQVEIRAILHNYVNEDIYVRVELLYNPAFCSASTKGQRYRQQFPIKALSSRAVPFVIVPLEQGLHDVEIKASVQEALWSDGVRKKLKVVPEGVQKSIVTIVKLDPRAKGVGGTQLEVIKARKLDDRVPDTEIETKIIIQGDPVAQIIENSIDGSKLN
factor B, sequence (Q91132 1264-1642 partner limits assumed): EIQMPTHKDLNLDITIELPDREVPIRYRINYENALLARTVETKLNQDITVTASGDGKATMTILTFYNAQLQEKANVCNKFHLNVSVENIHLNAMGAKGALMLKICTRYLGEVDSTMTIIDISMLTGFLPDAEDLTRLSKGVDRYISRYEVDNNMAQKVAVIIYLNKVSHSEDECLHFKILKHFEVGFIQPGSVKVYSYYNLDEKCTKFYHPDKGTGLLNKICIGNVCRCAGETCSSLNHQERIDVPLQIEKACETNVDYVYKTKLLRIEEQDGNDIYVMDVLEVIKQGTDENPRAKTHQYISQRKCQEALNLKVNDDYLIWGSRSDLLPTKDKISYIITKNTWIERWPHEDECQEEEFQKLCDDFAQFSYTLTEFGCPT
In general, IC50 refers to the concentration needed to halve the response being measured. As for `Cc1cc(C)c2[nH]cc3c2c1C(O)(c1nc2cc(C#N)ccc2[nH]1)CC3` (single isomer, unassigned) [93-F b) (tr = 7.2 min), (+) or (−)-2-(5-hydroxy-6,8-dimethyl-1,3,4,5-tetrahydrobenzo[cd]indol-5-yl)-1H-benzo[d]imidazole-5-carbonitrile], the 50% inhibitory concentration (IC50) worked out at 33800 nM. Regarding `Cc1cc(C)c2[nH]cc3c2c1C(O)(c1nc2cc(C#N)ccc2[nH]1)CC3` (single isomer, unassigned) [93-F b) (tr = 10.2 min), (−) or (+)-2-(5-hydroxy-6,8-dimethyl-1,3,4,5-tetrahydrobenzo[cd]indol-5-yl)-1H-benzo[d]imidazole-5-carbonitrile], the concentration for half-maximal inhibition (IC50) came to 950 nM.

For `CCc1cc(C)c2[nH]cc3c2c1C(O)(c1nc2cc(C#N)ccc2[nH]1)CC3` (single isomer, unassigned) [94 b) (tr = 4.5 min), (+) or (−)-2-(6-ethyl-5-hydroxy-8-methyl-1,3,4,5-tetrahydrobenzo[cd]indol-5-yl)-1H-benzo[d]imidazole-5-carbonitrile], the 50% inhibitory concentration (IC50) stood at 400 nM. For `CCc1cc(C)c2[nH]cc3c2c1C(O)(c1nc2cc(C#N)ccc2[nH]1)CC3` (single isomer, unassigned) [94 b) (tr = 6.3 min), (−) or (+)-2-(6-ethyl-5-hydroxy-8-methyl-1,3,4,5-tetrahydrobenzo[cd]indol-5-yl)-1H-benzo[d]imidazole-5-carbonitrile] the value was 1590 nM. Turning to `Cc1cc(C(C)C)c(C(N)c2nc3cc(C#N)ccc3[nH]2)c2cc[nH]c12` (single isomer, unassigned) [97 b) (tr = 10.5 min), (+) or (−)-2-(amino(5-isopropyl-7-methyl-1H-indol-4-yl)methyl)-1H-benzo[d]imidazole-5-carbonitrile], the IC50 stood at 3810 nM.

On to `Cc1cc(C(C)C)c(C(N)c2nc3cc(C#N)ccc3[nH]2)c2cc[nH]c12` (single isomer, unassigned) [97 b) (tr = 19.4 min), (−) or (+)-2-(amino(5-isopropyl-7-methyl-1H-indol-4-yl)methyl)-1H-benzo[d]imidazole-5-carbonitrile], for which the IC50 turned out to be 70 nM.

As to `Cc1cc(C)c2[nH]cc(-c3ccccc3)c2c1C(O)c1nc2cc(C#N)ccc2[nH]1` (single isomer, unassigned) [118-C b) (tr = 4.6 min), (+)- or (−)-2-((5,7-dimethyl-3-phenyl-1H-indol-4-yl)(hydroxy)methyl)-1H-benzo[d]imidazole-5-carbonitrile], the concentration for half-maximal inhibition (IC50) came to 30 nM. With `Cc1cc(C)c2[nH]cc(-c3ccccc3)c2c1C(O)c1nc2cc(C#N)ccc2[nH]1` (single isomer, unassigned) [118-C b) (tr = 7.9 min), (−) or (+)-2-((5,7-dimethyl-3-phenyl-1H-indol-4-yl)(hydroxy)methyl)-1H-benzo[d]imidazole-5-carbonitrile], the IC50 is 1750 nM.

For the compound `Cc1cc(C)c2[nH]cc(-c3cnn(C)c3)c2c1C(O)c1nc2cc(C#N)ccc2[nH]1` (single isomer, unassigned) [119 b) (tr = 1.54 min), (+)- or (−)-2-((5,7-dimethyl-3-(1-methyl-1H-pyrazol-4-yl)-1H-indol-4-yl)(hydroxy)methyl)-1H-benzo[d]imidazole-5-carbonitrile], the IC50 amounted to 130 nM.

For `Cc1cc(C)c2[nH]cc(-c3cnn(C)c3)c2c1C(O)c1nc2cc(C#N)ccc2[nH]1` (single isomer, unassigned) [119 b) (tr = 2.35 min), (−) or (+)-2-((5,7-dimethyl-3-(1-methyl-1H-pyrazol-4-yl)-1H-indol-4-yl)(hydroxy)methyl)-1H-benzo[d]imidazole-5-carbonitrile], the IC50 worked out at 12600 nM. Regarding `Cc1cc(C)c2[nH]cc(-c3cccnc3)c2c1C(O)c1nc2cc(C#N)ccc2[nH]1` (single isomer, unassigned) [120 b) (tr = 2.25 min), (+)- or (−)-2-((5,7-dimethyl-3-(pyridin-3-yl)-1H-indol-4-yl)(hydroxy)methyl)-1H-benzo[d]imidazole-5-carbonitrile], the concentration for half-maximal inhibition (IC50) is 120 nM.

For `Cc1cc(C)c2[nH]cc(-c3cccnc3)c2c1C(O)c1nc2cc(C#N)ccc2[nH]1` (single isomer, unassigned) [120 b) (tr = 3.20 min), (−) or (+)-2-((5,7-dimethyl-3-(pyridin-3-yl)-1H-indol-4-yl)(hydroxy)methyl)-1H-benzo[d]imidazole-5-carbonitrile], the half-maximal inhibitory concentration (IC50) was 29000 nM. For `Cc1cc(OC(F)F)c(C(C)(O)c2nc3cc(C#N)ccc3[nH]2)c2c(Cl)c[nH]c12` (single isomer, unassigned) [Example 7, (+) or (−)-2-(1-(3-chloro-5-(difluoromethoxy)-7-methyl-1H-indol-4-yl)-1-hydroxyethyl)-1H-benzo[d]imidazole-5-carbonitrile], the half-maximal inhibitory concentration (IC50) is 4240 nM. For `COc1cc(C)c2[nH]cc(Cl)c2c1C(C)(O)c1nc2cc(C#N)ccc2[nH]1` (single isomer, unassigned) [Example 29-A, (−) or (+)-2-(1-(3-Chloro-5-methoxy-7-methyl-1H-indol-4-yl)-1-hydroxyethyl)-1H-benzo[d]imidazole-5-carbonitrile] the value was 2030 nM.

`COc1cc(C)c2[nH]cc(Cl)c2c1C(C)(O)c1nc2cc(C#N)ccc2[nH]1` (single isomer, unassigned) [Example 29-B, (+) or (−)-2-(1-(3-chloro-5-methoxy-7-methyl-1H-indol-4-yl)-1-hydroxyethyl)-1H-benzo[d]imidazole-5-carbonitrile]: the concentration for half-maximal inhibition (IC50) came out at 2570 nM. Turning to `Cc1cc(OC(F)F)c(C(O)c2nc3cc(C#N)ccc3[nH]2)c2cc[nH]c12` (single isomer, unassigned; (+)) [3-B b) (+), (+)-2-((5-(difluoromethoxy)-7-methyl-1H-indol-4-yl)(hydroxy)methyl)-1H-benzo[d]imidazole-5-carbonitrile], the IC50 was determined as 820 nM. As for `Cc1cc(OC(F)F)c(C(C)(N)c2nc3cc(C#N)ccc3[nH]2)c2cc[nH]c12` (single isomer, unassigned; (+)) [5-E b) (+), (+)-2-(1-amino-1-(5-(difluoromethoxy)-7-methyl-1H-indol-4-yl)ethyl)-1H-benzo[d]imidazole-5-carbonitrile], the IC50 was 420 nM. For `COC(C)(c1nc2cc(C#N)ccc2[nH]1)c1c(OC(F)F)cc(C)c2[nH]ccc12` (single isomer, unassigned; (+)) [8-B b) (+), (+)-2-(1-(5-(difluoromethoxy)-7-methyl-1H-indol-4-yl)-1-methoxyethyl)-1H-benzo[d]imidazole-5-carbonitrile], the IC50 came out at 10 nM.

In the case of `Cc1cc(S(C)(=O)=O)c(C(C)(N)c2nc3cc(C#N)ccc3[nH]2)c2cc[nH]c12` (single isomer, unassigned; (+)) [13-E b) (+), (+)-2-(1-Amino-1-(7-methyl-5-(methylsulfonyl)-1H-indol-4-yl)ethyl)-1H-benzo[d]imidazole-5-carbonitrile], the IC50 is 250 nM. In the case of `Cc1cc(S(C)(=O)=O)c(C(O)(c2nc3cc(C#N)ccc3[nH]2)C(F)(F)F)c2cc[nH]c12` (single isomer, unassigned; (+)) [14-D b) (+), (+)-2-(2,2,2-trifluoro-1-hydroxy-1-(7-methyl-5-(methylsulfonyl)-1H-indol-4-yl)ethyl)-1H-benzo[d]imidazole-5-carbonitrile], the IC50 was found to be 8410 nM. `COC(c1nc2cc(C#N)ccc2[nH]1)(c1c(S(C)(=O)=O)cc(C)c2[nH]ccc12)C(F)(F)F` (single isomer, unassigned; (+)) [15-D b) (+), (+)-2-(2,2,2-trifluoro-1-methoxy-1-(7-methyl-5-(methylsulfonyl)-1H-indol-4-yl)ethyl)-1H-benzo[d]imidazole-5-carbonitrile]: the concentration for half-maximal inhibition (IC50) was determined as 32700 nM. For the compound `CNC(c1nc2cc(C#N)ccc2[nH]1)(c1c(S(C)(=O)=O)cc(C)c2[nH]ccc12)C(F)(F)F` (single isomer, unassigned; (+)) [16-B b) (+), (+)-2-(2,2,2-trifluoro-1-(7-methyl-5-(methylsulfonyl)-1H-indol-4-yl)-1-(methylamino)ethyl)-1H-benzo[d]imidazole-5-carbonitrile], the IC50 came out at 4740 nM. Regarding `Cc1cc(S(C)(=O)=O)c(C(N)(c2nc3cc(C#N)ccc3[nH]2)C(F)(F)F)c2cc[nH]c12` (single isomer, unassigned; (+)) [17-B b) (+), (+)-2-(1-amino-2,2,2-trifluoro-1-(7-methyl-5-(methylsulfonyl)-1H-indol-4-yl)ethyl)-1H-benzo[d]imidazole-5-carbonitrile], the concentration for half-maximal inhibition (IC50) came to 6860 nM. To `COc1cc(C)c2[nH]ccc2c1C(O)c1nc2cc(C#N)ccc2[nH]1` (single isomer, unassigned; (+)) [24-B b) (+), (+)-2-(hydroxy(5-methoxy-7-methyl-1H-indol-4-yl)methyl)-1H-benzo[d]imidazole-5-carbonitrile] belongs 370 nM; to `CCOc1cc(C)c2[nH]ccc2c1C(O)c1nc2cc(C#N)ccc2[nH]1` (single isomer, unassigned; (+)) [24-C b) (+), (+)-2-((5-ethoxy-7-methyl-1H-indol-4-yl)(hydroxy)methyl)-1H-benzo[d]imidazole-5-carbonitrile], 6050 nM.

With `Cc1cc(OC(C)C)c(C(O)c2nc3cc(C#N)ccc3[nH]2)c2cc[nH]c12` (single isomer, unassigned; (+)) [24-D b) (+), (+)-2-(hydroxy(5-isopropoxy-7-methyl-1H-indol-4-yl)methyl)-1H-benzo[d]imidazole-5-carbonitrile], the 50% inhibitory concentration (IC50) is 1980 nM. Turning to `CCOc1cc(C)c2[nH]ccc2c1C(C)(O)c1nc2cc(C#N)ccc2[nH]1` (single isomer, unassigned; (+)) [26-D b) (+), (+)-2-(1-(5-ethoxy-7-methyl-1H-indol-4-yl)-1-hydroxyethyl)-1H-benzo[d]imidazole-5-carbonitrile], the IC50 was 360 nM.
